Experimental data taken from article PMC9268166, “Modeling of Anticancer Sulfonamide Derivatives Lipophilicity by Chemometric and Quantitative Structure-Retention Relationships Approaches” (Molecules, 2022).

Assays:
[1] = IAM chromatography (IAM-HPLC), IAM.PC.DD2 column; assay type: physicochemical; settings: for CHI (CHIIAM), Table S2: IAM chromatography, from mean of three retention times; for logkIAM: logkIAM = 0.045 CHIIAM + 0.42; for CHIIAM: pH 7.4, 30 °C, acetonitrile gradient
Description: (§1) For this reason, the next step of our study concerns the characterization of investigated sulfonamide derivatives using a chromatographic approach. Generally, in RP-HPLC, the interactions between solutes and the stationary phase surface are mainly governed by lipophilicity. Consequently, RP-HPLC is the primary tool for assessing the lipophilicity of xenobiotics. […] Generally, the chemical character of target solutes determines interactions between the molecule and the stationary phase that may occur. Considering the large variety of RP-HPLC beds and differences in specific surface area, the energy of the sorbent’s intermolecular interactions between solutes and chemical structures, four different reversed-phase stationary phases and IAM column were investigated during this study. The lipophilicity index was presented as a logkw value, so the retention factor was extrapolated to the pure water after calculation using a protocol based on two gradient measurements and DryLab software.
(§2) Since the biomimetic chromatography experiments are carried out at physiological pH to compare obtained results, all chromatographic experiments have been carried out at pH 7.4. […] Consequently, the chromatography lipophilicity indices refer to the distribution coefficient (logD) values, which better reflect the lipophilicity of ionized substances under physiological conditions.
(§3) All HPLC experiments were carried out using a Prominence-1 LC-2030C 3D HPLC system (Shimadzu, Japan) equipped with a DAD detector and controlled by the LabSolution system (version 5.90 Shimadzu, Japan). The stock solutions of solutes were diluted to obtain 100 μg/mL concentrations, and the injected volume was 10 μL. During this study, six different columns in terms of chemical modification of stationary phases were used. Retention times (tR) of investigated sulfonamides were collected, and their detection in all systems was performed at the wavelength characteristic for each compound, summarized in Table S1. For all chromatography systems, analysis was carried out at 40 °C, except for IAM chromatography, in which oven temperature was set to 30 °C. The CHIIAM and CHI18 indices of the target sulfonamides derivatives were obtained using the protocol proposed by Valko and co-workers. C18 chromatography was performed on a Waters-C18 column (150 mm × 3.9 mm; 5.0 µm; Symmetry; USA), with a 1.5 mL/min flow rate. The mobile phase was ammonium acetate buffer (50 mM) at pH 7.4 and acetonitrile as an organic modifier. The linear gradient from 2 to 98% ACN was applied from 0 to 30 min. IAM chromatography was executed on an IAM.PC.DD2 column ([…] × 4.6 mm; 10.0 µm; Regis Technologies, Morton Grove, IL, USA) additionally equipped with an IAM guard column with the same flow rate of 1.5 mL/min. The mobile phase was sodium phosphate buffer (10 mM) at pH 7.4 and acetonitrile as the organic phase. The linear gradient from 0 to 85% was applied within 5.25 min.

[2] = C18 chromatography (RP-HPLC), chromatographic hydrophobicity index; assay type: physicochemical; settings: for chromatographic logD: Waters Symmetry C18 column, CHI log D = 0.0525 CHIC18 − 1.467, pH 7.4; for CHIC18: pH 7.4, 40 °C, acetonitrile gradient
Description: as §1, §2, §3

[3] = C8 chromatography (RP-HPLC), logkw from two gradients with DryLab; assay type: physicochemical; settings: for logkw, Table S4: C8 chromatography, pH 7.4, short and long gradient; for logkwC8: pH 7.4, 40 °C, retention factor extrapolated to 0% organic modifier
Description: as §1, §2
(§4) For C8, cyanopropyl, and phenyl chromatography, according to the assumption proposed by Snyder and co-workers, appropriate logkw values (i.e., the retention factor logk extrapolated to 0% organic modifier, as an alternative to logP) were obtained. […] Dwell volume for these HPLC systems was measured at 0.780 mL, whereas the obtained dead times for used HPLC columns were equal to 1.530 min, 1.252 min, and 2.335 min for C8, SB-CN, and UK-Phenyl, respectively. The mobile phase was ammonium acetate buffer (50 mM) at pH 7.4 and acetonitrile as an organic modifier in each system. C8 chromatography was performed on Unison UK-C8 column (150 × 2 mm; 3.0 µm. Imtakt; USA) with 0.3 mL/min flow rate. Analyses were carried out in linear gradient from 30 to 100% within 15 min in short gradient and 30 min in long gradient. The Agilent SB-CN column (150 × 4.6 mm; 3.5 µm; Zorbax; USA) was used for the cyanopropyl chromatography. The CN chromatography analyses were carried out in linear gradient from 20 to 100%, which was applied from 0 to 20 min in short gradient, and from 0 to 40 min in long gradient. The flow rate was 1.5 mL/min. The column Unison UK-Phenyl (150 × 2 mm; 3.0 µm; Imtakt; USA) was used to perform phenyl chromatography. The flow rate was set to 0.2 mL/min. The phenyl analyses were carried out in linear gradient from 40 to 100%, which was applied from 0 to 20 min in short gradient, and from 0 to 40 min in long gradient. Each HPLC analysis was run in triplicate; in Tables S2–S6, obtained retention times are listed, whereas representative chromatograms are shown in Figure 9.

[4] = Cyanopropyl (CN) chromatography, logkw from two gradients with DryLab; assay type: physicochemical; settings: for logkw, Table S5: Cyanopropyl chromatography, pH 7.4, short and long gradient; for logkwCN: pH 7.4, 40 °C, retention factor extrapolated to 0% organic modifier
Description: as §1, §2, §4

[5] = Phenyl (Ph) chromatography, logkw from two gradients with DryLab; assay type: physicochemical; settings: for logkw, Table S6: Phenyl chromatography, pH 7.4, short and long gradient; for logkwPh: pH 7.4, 40 °C, retention factor extrapolated to 0% organic modifier
Description: as §1, §2, §4

[6] = test system: human colon cancer (HCT-116); set-up: method as in PMID 29772699, PMID 28122174, PMID 27338337, PMID 26506328; settings: HCT-116 cell line; cited from earlier work

Structure (SMILES)	CHI (CHIIAM), Table S2 ([1]; pH 7.4)	logkIAM ([1]; pH 7.4)	chromatographic logD [2]	CHIC18 [2]	logkw, Table S4 [3]	logkwC8 [3]	logkw, Table S5 [4]	logkwCN [4]	logkw, Table S6 [5]	logkwPh [5]	CHIIAM [1]	lipophilicity rank by the chromatographic experiments ([1]; based on the experimental data of all chromatographic systems, pH 7.4)	pIC50 [6]
Cc1cc(S(=O)(=O)Nc2nnc(-c3ccccc3)c(=O)[nH]2)c(SCc2cccc3ccccc23)cc1Cl [Compound 10]	39.1	2.18	2.96	84.30	4.211	4.21	2.251	2.25	4.193	4.19			4.05
O=S(=O)(Nc1ccc(Cl)cc1)c1ccc(-n2cccc2)cc1 [Compound 6]	45.4	2.46	3.5	94.70	4.609	4.61	2.892	2.89	5.391	5.39			4.15
Cc1ccnc(NS(=O)(=O)c2ccc(-n3cccc3)cc2)n1 [Compound 1]	19.2	1.28	1.51	56.70	2.980	2.98	1.580	1.58	2.620	2.62		least lipophilic	4.34
Cc1cc(S(=O)(=O)Nc2nnc(Cc3ccccc3)c(=O)[nH]2)c(SCc2cc3c(cc2Cl)OCO3)cc1Cl [Compound 11]	35.5	2.02	2.75	80.30	4.074	4.07	2.130	2.13	3.824	3.82			4.06
O=S(=O)(Nc1cccc2cccnc12)c1ccc(-n2cccc2)cc1 [Compound 2]	45.0	2.45	3.65	97.50	4.682	4.68	4.040	4.04	6.221	6.22			6.00
COc1ccc(NC(=O)c2cc(S(=O)(=O)Nc3nncc(-c4ccc(OC)cc4)n3)c(SCc3ccccc3)cc2Cl)cc1 [Compound 20]		1.99	2.59	77.20	4.020	4.02	2.211	2.21	3.789	3.79	34.90		4.14
Cc1cc(S(=O)(=O)NC(=O)C=Cc2ccccc2)c(SCc2cccc3ccccc23)cc1Cl [Compound 27]	39.6	2.20	2.37	73.10	4.279	4.28	2.313	2.31	4.460	4.46			
CC(=O)NS(=O)(=O)c1cc(C)c(Cl)cc1SCc1cccc2ccccc12 [Compound 26]	30.6	1.80	2.95	84.10	3.655	3.66	1.763	1.76	2.870	2.87			

Continued, in another order:

CHI (CHIIAM), Table S2 ([1]; pH 7.4)	logkIAM ([1]; pH 7.4)	chromatographic logD [2]	CHIC18 [2]	logkw, Table S4 [3]	logkwC8 [3]	logkw, Table S5 [4]	logkwCN [4]	logkw, Table S6 [5]	logkwPh [5]	CHIIAM [1]	lipophilicity rank by the chromatographic experiments ([1]; based on the experimental data of all chromatographic systems, pH 7.4)	Structure (SMILES)	pIC50 [6]
36.7	2.07	2.88	82.80	4.206	4.21	2.010	2.01	4.490	4.49			Cc1cc(S(=O)(=O)Nc2nnc(-c3ccccc3)c(=O)[nH]2)c(SCc2ccc(C(F)(F)F)cc2)cc1Cl [Compound 8]	4.10
	2.28	3.34	91.60	4.440	4.44	2.110	2.11	4.480	4.48	41.30		Cc1cc(S(=O)(=O)Nc2nncc(-c3ccc(C(F)(F)F)cc3)n2)c(SCc2ccc(C(F)(F)F)cc2)cc1Cl [Compound 21]	4.29
38.3	2.14	3.13	87.50	4.256	4.26	2.277	2.28	4.088	4.09			Cc1cc(S(=O)(=O)Nc2nncc(-c3cccc(F)c3)n2)c(SCc2ccc(C(F)(F)F)cc2)cc1Cl [Compound 24]	4.17
37.1	2.09	2.62	77.90	4.030	4.03	2.037	2.04	3.532	3.53			Cc1cc(S(=O)(=O)Nc2nncc(-c3cccc(F)c3)n2)c(SCc2ccccc2)cc1Cl [Compound 13]	4.12
37.2	2.09	2.96	84.40	4.260	4.26	2.330	2.33	3.886	3.89			COc1ccc(-c2cnnc(NS(=O)(=O)c3cc(C)c(Cl)cc3SCc3ccc(C(F)(F)F)cc3)n2)cc1 [Compound 25]	4.17
	2.37	3.39	92.50	4.530	4.53	2.642	2.64	5.074	5.07	43.40		O=C(Nc1ccc(Cl)cc1)c1cc(S(=O)(=O)Nc2nncc(-c3ccc(C(F)(F)F)cc3)n2)c(SCc2ccccc2)cc1Cl [Compound 15]	4.19
